In US8173840B2, “Compounds with high therapeutic index” (Signature R&D Holdings, LLC, priority 2003, dated 2012):
“And” between values parts separate entries of the source, which are not always exact repeats. Identical values can stand only once.

Assays:
[1] = tested on: rats; assay: Hypolipidemic property, blood triglycerides in rats on high sugar diet; assay type: in vivo, rat; details: for Triglycerides, Day 7 / Triglycerides, Day zero / Triglycerides, Day 14: individual animals; for Triglycerides, Day 7: after 1 week high sugar diet, before drug; for Triglycerides, Day zero: before diet and drug; for Triglycerides, Day 14: drug day 7-14; for anti-hyperlipidemic properties: compared with Fenofibrate
Procedure: Rats were checked for time zero triglyceride level in blood. Then the rats were set on high sugar diet, such as 30% sucrose in water for 1 week. Then at the end of 1 week, rats were tested for triglycerides, and were put on normal diet. From day 7-14 the rats were administered either test or control drug. Triglycerides were again tested on the 14th day in rat blood.

[2] = tested on: Swiss Albino Mice; assay: 28-day chronic toxicity study of ibuprofen esters; details: 28 days
Excerpt: Randomization was done by the method of stratified randomization procedure using SAS software program (Version 8.2) with stratification by bodyweight.
The duration of dosing was 28 days. All the animals were daily tested until the end of the study for the presence/absence of clinical symptoms of toxicity. Cage side observations included changes in the skin, eyes, posture, gait, respiration and behavior pattern. The incidence of twitching, tremors, convulsions, salivation, diarrhea and death if any, were also recorded.

[3] = tested on: male albino mice (Swiss strain); assay: Acetylcholine induced abdominal constriction (writhe) method; assay type: in vivo, mouse; details: for Number of animals showing absence of single writhe (number of animals per dose = 10), One hour after dosing / Number of animals showing absence of single writhe (number of animals per dose = 10), Three hours after dosing: gavage
Procedure: Ibuprofen (racemic mixture) and ibuprofen (S)-(+) served as reference controls.
The study was conducted at two dose levels viz. 50 mg and 100 mg/kg body weight along with a vehicle control group. At each dose level 10 animals were used. All the doses were expressed as ibuprofen molar equivalents. The doses used as well as the molar equivalents are presented below.
The efficacy in terms of antagonizing effect on acetylcholine induced single writhe at two dose levels—50.0 and 100.0 mg/kg for the three formulations and reference controls are presented below.

[4] = tested on: albino mouse; assay: Anesthetic effect in male albino mice, righting reflex as index; details: low, intermediate, high dose
Excerpt: However the doses of low, intermediate and high for different formulations and reference control were different.
The different doses for each formulation and reference control were selected based on the recommendation of Sponsor. All the doses were expressed as propofol molar equivalents.

[5] = tested on: albino mice (Swiss strain); assay: 14 day repeated dose toxicity study, intravenous route, propofol esters
Procedure: by conducting a 14 day repeated dose toxicity study through intravenous route using albino mice as test system.
Propofol and its derivatives above were administered to albino mice (Swiss strain), through intravenous route daily for a period of 14 days using sterile sodium chloride solution as vehicle. The study was conducted at one dose level only along with a vehicle control group as per the recommendation of the Sponsor.
The doses were selected as per the recommendation of the Sponsor. The test doses are expressed as Propofol molar equivalents.

[6] = 50.0 mg/kg in terms of Ibuprofen
[7] = 100.0 mg/kg in terms of Ibuprofen

| SMILES | % Change From day 0 ([1]; Dose 25 mg/kg) [%] | % Change from day 7 ([1]; Dose 25 mg/kg) [%] | Absolute Change from day 0 ([1]; Dose 25 mg/kg) | Absolute Change from day 7 ([1]; Dose 25 mg/kg) | % Change From day 0 ([1]; Dose 50 mg/kg) [%] | % Change from day 7 ([1]; Dose 50 mg/kg) [%] | Absolute Change from day 0 ([1]; Dose 50 mg/kg) | Absolute Change from day 7 ([1]; Dose 50 mg/kg) | % Change From day 0 ([1]; Dose 100 mg/kg) [%] | % Change from day 7 ([1]; Dose 100 mg/kg) [%] | Absolute Change from day 0 ([1]; Dose 100 mg/kg) | Absolute Change from day 7 ([1]; Dose 100 mg/kg) | Number of animals showing absence of single writhe (number of animals per dose = 10), One hour after dosing [3, 6] | Number of animals showing absence of single writhe (number of animals per dose = 10), Three hours after dosing [3, 6] | Number of animals showing absence of single writhe (number of animals per dose = 10), One hour after dosing [3, 7] | Number of animals showing absence of single writhe (number of animals per dose = 10), Three hours after dosing [3, 7] | further results |
| --- | --- | --- | --- | --- | --- | --- | --- | --- | --- | --- | --- | --- | --- | --- | --- | --- | --- |
| CC(C)(Oc1ccc(C(=O)c2ccc(Cl)cc2)cc1)C(=O)OC[C@H](N)C(=O)O.Cl [L-Serine Ester of Fenofibric Acid, L-serine-fenofibric acid ester, hydrochloride] | −61.64 | −72.82 | −54 | −90 | −44.10 | −67.90 | −31.4 | −84.2 | −33.23 | −63.27 | −20.8 | −72 |  |  |  |  | Triglycerides, Day 7 ([1]; 50 mg/kg group, hydrochloride): 148 mg/dL and 145 mg/dL and 127 mg/dL; Triglycerides, Day zero ([1]; 50 mg/kg group, hydrochloride): 88 mg/dL and 94 mg/dL and 100 mg/dL; Triglycerides, Day 14 ([1]; 50 mg/kg, hydrochloride): 86 mg/dl (2×) and 73 mg/dl; Triglycerides, Day 7 ([1]; 100 mg/kg group, hydrochloride): 100 mg/dL and 183 mg/dL; Triglycerides, Day zero ([1]; 100 mg/kg group, hydrochloride): 109 mg/dL and 129 mg/dL and 71 mg/dL; Triglycerides, Day 14 ([1]; 100 mg/kg, hydrochloride): 46 mg/dL and 69 mg/dL and 47 mg/dL; Triglycerides, Day 7 ([1]; 200 mg/kg group, hydrochloride): 240 mg/dL and 158 mg/dL and 77 mg/dL; Triglycerides, Day zero ([1]; 200 mg/kg group, hydrochloride): 74 mg/dL and 81 mg/dL and 42 mg/dL; Triglycerides, Day 14 ([1]; 200 mg/kg, hydrochloride): 83 mg/dL and 61 mg/dL and 46 mg/dL |
| CC(C)OC(=O)C(C)(C)Oc1ccc(C(=O)c2ccc(Cl)cc2)cc1 [Fenofibrate, reference compound] | −15.21 | −45.86 | −10.8 | −51 | −22.95 | −66.06 | −13.4 | −87.6 | −61.26 | −73.51 | −40.8 | −71.6 |  |  |  |  | Triglycerides, Day 7 ([1]; 50 mg/kg group): 150 mg/dL; Triglycerides, Day zero ([1]; 50 mg/kg group): 95 mg/dL and 92 mg/dL and 80 mg/dL; Triglycerides, Day 14 ([1]; 50 mg/kg): 101 mg/dL and 76 mg/dL and 73 mg/dL; Triglycerides, Day zero ([1]; 100 mg/kg group): 110 mg/dL and 115 mg/dL and 96 mg/dL; Triglycerides, Day 14 ([1]; 100 mg/kg): 62 mg/dL and 69 mg/dL and 93 mg/dL; Triglycerides, Day 7 ([1]; 200 mg/kg group): 90 mg/dL and 106 mg/dL and 125 mg/dL; Triglycerides, Day zero ([1]; 200 mg/kg group): 144 mg/dL and 56 mg/dL and 58 mg/dL; Triglycerides, Day 14 ([1]; 200 mg/kg): 48 mg/dL and 51 mg/dL and 38 mg/dL |
| CC(C)Cc1ccc(C(C)C(=O)O[C@H]2CN[C@H](C(=O)O)C2)cc1 (mixture of isomers) [(±)-Ibuprofen-L-hydroxyproline ester, 4(R)-[2-(4-Isobutyl-phenyl)-propionyloxy]-pyrrolidine-2(S)-carboxylic acid] [listing 1 of 2 here] |  |  |  |  |  |  |  |  |  |  |  |  |  |  |  |  | No of animals survived ([2]; 10 animals per group): 9; animals that died ([2]; both sexes): 10%; Mortality ([2]; Female): 1/5; Mortality ([2]; Male): Nil; Average Change In body Weight ([2]; surviving animals): 1.43 gms; Percentage Change of body weight ([2]; surviving animals): 5.75% |
| C[C@@H](OC(=O)C(C)(C)Oc1ccc(C(=O)c2ccc(Cl)cc2)cc1)[C@H](N)C(=O)O.Cl [Fen-T Ester, L-threonine-fenofibric acid ester, hydrochloride] | −23.21 | −37.68 | −18.2 | −36.4 | −35.00 | −63.71 | −23.8 | −77.6 | −68.45 | −75.04 | −63.8 | −88.4 |  |  |  |  | anti-hyperlipidemic properties ([1]; listed as Fenofibric Acid-L-Threonine ester, hydrochloride): overall superior anti-hyperlipidemic properties; anti-hyperlipidemic properties ([1]; listed as L-Threonine ester, hydrochloride): dose dependent decrease in triglycerides |
| CC(C)Cc1ccc(C(C)C(=O)OC[C@H](N)C(=O)O)cc1.Cl (mixture of isomers) [(±)-Ibuprofen-L-serine ester, 2(S)-Amino-3-[2(R,S)-(4-isobutylphenyl)-propionyloxy]-propionic acid, hydrochloride] |  |  |  |  |  |  |  |  |  |  |  |  | 4 | 2 | 6 | 4 |  |
| CC(C)Cc1ccc([C@H](C)C(=O)O)cc1 [Ibuprofen (S)-(+), reference compound] |  |  |  |  |  |  |  |  |  |  |  |  | 5 | 1 | 6 | 6 |  |
| CC(C)Cc1ccc(C(C)C(=O)O[C@H]2CN[C@H](C(=O)O)C2)cc1 (mixture of isomers) [(±)-Ibuprofen-L-hydroxyproline ester, 4(R)-[2-(4-Isobutyl-phenyl)-propionyloxy]-pyrrolidine-2(S)-carboxylic acid] [listing 2 of 2 here] |  |  |  |  |  |  |  |  |  |  |  |  | 5 | 4 | 7 | 7 | antagonizing the acetylcholine induced writhe, clinical observation ([3]; compared to other formulations, Ibuprofen (racemic) and Ibuprofen (S)-(+)): more effective in antagonizing the acetylcholine induced writhe |
| CC(C)c1cccc(C(C)C)c1O [Propofol injection, 2,6-diisopropylphenol, reference compound] |  |  |  |  |  |  |  |  |  |  |  |  |  |  |  |  | dose response relation (statistical analysis) [4]: statistically significant and clearly evident; feed intake ([5]; 14 days): normal and comparable to that of vehicle control group; animals exhibiting clinical symptoms of toxicity ([5]; IV daily 14 days): None of the animals; body weight gain ([5]; IV daily 14 days, compared to vehicle control): normal and comparable to that of vehicle control group of animals |
| CC(C)(Oc1ccc(C(=O)c2ccc(Cl)cc2)cc1)C(=O)OC1CN[C@H](C(=O)O)C1.Cl (stereo partly drawn) [Fen-HP Ester, L-hydroxyproline-fenofibric acid ester, hydrochloride] | −32.92 | −59.45 | −16 | −47.8 | −49.31 | −65.80 | −35.8 | −70.8 | −7.52 | −72.82 | −3.4 | −112 |  |  |  |  |  |
